In patent US8410112B2, “Compounds useful as inhibitors of ATR kinase” (Vertex Pharmaceuticals Incorporated, priority 2008, dated 2013):

Biological target: T1, full-length ATR (Homo sapiens, UniProt Q13535)
T1 construct: in the presence of 5 nM full-length ATR
Test: ATR Inhibition Assay (radioactive-phosphate incorporation)
Format: biochemical
Settings: Ki(app); 5 nM full-length ATR, 10 μM ATP, 800 μM target peptide, 25° C.
In short: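 Buffer was 50 mM Tris/HCl pH 7.5, 10 mM MgCl2, 1 mM DTT, with 5 nM enzyme, 10 μM [γ-33P]ATP and 800 μM target peptide at 25 °C. Compound was pre-incubated 10 min before ATP start, and the reaction was stopped after 24 h. Phosphocellulose filter capture; Ki(app) came from non-linear regression of background-corrected initial rates.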

T1 sequence (Q13535 whole entry): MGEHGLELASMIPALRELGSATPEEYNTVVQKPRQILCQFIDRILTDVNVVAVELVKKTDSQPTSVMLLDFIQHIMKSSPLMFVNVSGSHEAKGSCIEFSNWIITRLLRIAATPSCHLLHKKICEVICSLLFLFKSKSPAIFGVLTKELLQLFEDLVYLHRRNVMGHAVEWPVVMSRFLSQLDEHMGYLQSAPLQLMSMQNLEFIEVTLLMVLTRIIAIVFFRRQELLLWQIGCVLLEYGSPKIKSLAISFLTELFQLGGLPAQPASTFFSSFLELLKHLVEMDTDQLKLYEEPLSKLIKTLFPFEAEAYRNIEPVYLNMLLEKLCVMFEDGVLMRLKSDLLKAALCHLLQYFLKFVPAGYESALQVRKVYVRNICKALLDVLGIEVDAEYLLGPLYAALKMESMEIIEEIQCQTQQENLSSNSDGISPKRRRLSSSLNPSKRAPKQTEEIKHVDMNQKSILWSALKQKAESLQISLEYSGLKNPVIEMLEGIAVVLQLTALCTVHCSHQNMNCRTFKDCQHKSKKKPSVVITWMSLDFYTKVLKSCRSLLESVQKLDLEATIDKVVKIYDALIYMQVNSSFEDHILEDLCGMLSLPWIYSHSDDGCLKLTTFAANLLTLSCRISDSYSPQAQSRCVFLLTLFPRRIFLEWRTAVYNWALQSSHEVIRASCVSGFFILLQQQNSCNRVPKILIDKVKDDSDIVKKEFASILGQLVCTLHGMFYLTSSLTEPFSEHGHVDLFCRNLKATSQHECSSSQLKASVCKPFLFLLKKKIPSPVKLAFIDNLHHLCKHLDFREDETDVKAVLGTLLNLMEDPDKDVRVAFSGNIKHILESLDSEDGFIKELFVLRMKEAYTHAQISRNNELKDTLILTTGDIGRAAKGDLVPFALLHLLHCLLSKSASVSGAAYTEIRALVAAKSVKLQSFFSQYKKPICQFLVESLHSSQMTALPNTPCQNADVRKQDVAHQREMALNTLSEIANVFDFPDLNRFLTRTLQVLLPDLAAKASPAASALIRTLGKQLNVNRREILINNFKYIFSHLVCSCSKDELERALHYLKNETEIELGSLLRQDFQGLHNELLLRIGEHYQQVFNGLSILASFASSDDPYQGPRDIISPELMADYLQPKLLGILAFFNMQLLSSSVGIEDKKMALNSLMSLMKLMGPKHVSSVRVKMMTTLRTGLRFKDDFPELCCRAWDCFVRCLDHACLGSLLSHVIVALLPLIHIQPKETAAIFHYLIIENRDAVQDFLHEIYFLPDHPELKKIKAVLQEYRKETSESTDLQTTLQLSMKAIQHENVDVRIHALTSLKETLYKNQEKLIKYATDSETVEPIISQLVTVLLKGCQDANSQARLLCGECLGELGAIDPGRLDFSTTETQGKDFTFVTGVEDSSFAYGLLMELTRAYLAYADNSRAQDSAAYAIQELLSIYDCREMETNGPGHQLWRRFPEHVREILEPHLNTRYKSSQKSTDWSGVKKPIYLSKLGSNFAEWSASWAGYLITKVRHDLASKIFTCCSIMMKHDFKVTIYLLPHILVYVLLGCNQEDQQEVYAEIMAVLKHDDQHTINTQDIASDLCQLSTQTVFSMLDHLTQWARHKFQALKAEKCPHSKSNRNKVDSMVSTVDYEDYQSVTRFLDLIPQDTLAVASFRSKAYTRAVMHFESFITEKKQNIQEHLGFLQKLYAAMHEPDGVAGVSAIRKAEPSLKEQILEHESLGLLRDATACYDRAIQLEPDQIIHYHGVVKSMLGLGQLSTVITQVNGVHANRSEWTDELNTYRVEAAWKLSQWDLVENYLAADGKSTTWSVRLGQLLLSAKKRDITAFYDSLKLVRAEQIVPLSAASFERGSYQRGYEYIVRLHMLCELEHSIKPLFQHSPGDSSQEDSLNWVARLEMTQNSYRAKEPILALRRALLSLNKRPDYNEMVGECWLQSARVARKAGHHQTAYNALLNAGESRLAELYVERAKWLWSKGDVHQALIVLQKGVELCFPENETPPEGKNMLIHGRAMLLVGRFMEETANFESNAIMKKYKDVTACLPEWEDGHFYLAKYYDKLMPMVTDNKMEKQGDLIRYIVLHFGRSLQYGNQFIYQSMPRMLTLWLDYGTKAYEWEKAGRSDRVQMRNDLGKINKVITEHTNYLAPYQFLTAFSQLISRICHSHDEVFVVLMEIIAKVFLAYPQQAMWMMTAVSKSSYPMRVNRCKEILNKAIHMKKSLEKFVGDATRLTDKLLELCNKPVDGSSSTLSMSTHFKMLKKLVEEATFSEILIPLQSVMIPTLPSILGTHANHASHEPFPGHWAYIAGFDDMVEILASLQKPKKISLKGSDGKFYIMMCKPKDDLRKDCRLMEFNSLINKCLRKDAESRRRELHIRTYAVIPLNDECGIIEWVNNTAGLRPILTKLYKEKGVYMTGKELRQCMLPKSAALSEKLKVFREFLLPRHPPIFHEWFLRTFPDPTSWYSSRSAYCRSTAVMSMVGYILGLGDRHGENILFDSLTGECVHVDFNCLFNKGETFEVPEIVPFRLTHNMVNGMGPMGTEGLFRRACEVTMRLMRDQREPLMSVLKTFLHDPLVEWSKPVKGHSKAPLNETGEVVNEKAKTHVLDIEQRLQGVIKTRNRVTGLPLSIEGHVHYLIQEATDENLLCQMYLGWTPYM

Structure (SMILES)	Ki [nM]
Nc1ncc(N2CCN(C(=O)N3CCCCC3)CC2)nc1C(=O)Nc1ccccn1 [Compound I-247, 3-amino-6-(4-(piperidine-1-carbonyl)piperazin-1-yl)-N-(pyridin-2-yl)pyrazine-2-carboxamide]	1000 to 10000
CC#CCOC(=O)N1CCN(c2cnc(N)c(C(=O)Nc3ccccn3)n2)CC1 [Compound I-252, but-2-ynyl 4-(5-amino-6-(pyridin-2-ylcarbamoyl)pyrazin-2-yl)piperazine-1-carboxylate]	1000 to 10000
Nc1ncc(N2CCN(C(=O)OCc3ccccc3)CC2)nc1-c1nnc(-c2ccccc2)o1 [Compound I-255, benzyl 4-(5-amino-6-(5-phenyl-1,3,4-oxadiazol-2-yl)pyrazin-2-yl)piperazine-1-carboxylate]	1000 to 10000
Nc1ncc(N2CCN(C(=O)OCc3ccccc3)CC2)nc1C(=O)Nc1ccccn1 [Compound I-260, benzyl 4-(5-amino-6-(pyridin-2-ylcarbamoyl)pyrazin-2-yl)piperazine-1-carboxylate]	1000 to 10000
Nc1ncc(C2=CCN(C(=O)OCc3ccccc3)CC2)nc1-c1nc2ccccc2[nH]1 [Compound I-261, benzyl 4-(5-amino-6-(1H-benzo[d]imidazol-2-yl)pyrazin-2-yl)-5,6-dihydropyridine-1(2H)-carboxylate]	100 to 1000
Cc1cccc(C)c1C(=O)N1CCN(c2cnc(N)c(C(=O)Nc3ccccn3)n2)CC1 [Compound I-262, 3-amino-6-(4-(2,6-dimethylphenylcarbonyl)piperazin-1-yl)-N-(pyridin-2-yl)pyrazine-2-carboxamide]	100 to 1000
COCCOCC(=O)N1CCN(c2cnc(N)c(-c3nc4ccccc4[nH]3)n2)CC1 [Compound I-264, 1-(4-(5-amino-6-(1H-benzo[d]imidazol-2-yl)pyrazin-2-yl)piperazin-1-yl)-2-(2-methoxyethoxy)ethanone]	1000 to 10000
COCC(=O)N1CCN(c2cnc(N)c(-c3nc4ccccc4[nH]3)n2)CC1 [Compound I-265, 1-(4-(5-amino-6-(1H-benzo[d]imidazol-2-yl)pyrazin-2-yl)piperazin-1-yl)-2-methoxyethanone]	1000 to 10000
COCCOC(=O)N1CCN(c2cnc(N)c(-c3nc4ccccc4[nH]3)n2)CC1 [Compound I-266, 2-methoxyethyl 4-(5-amino-6-(1H-benzo[d]imidazol-2-yl)pyrazin-2-yl)piperazine-1-carboxylate]	1000 to 10000
Nc1ncc(N2CCN(C(=O)N3CCCC3)CC2)nc1-c1nc2ccccc2[nH]1 [Compound I-267, (4-(5-amino-6-(1H-benzo[d]imidazol-2-yl)pyrazin-2-yl)piperazin-1-yl)(pyrrolidin-1-yl)methanone]	1000 to 10000
COC(=O)N1CCN(c2cnc(N)c(-c3nc4ccccc4[nH]3)n2)CC1 [Compound I-268, methyl 4-(5-amino-6-(1H-benzo[d]imidazol-2-yl)pyrazin-2-yl)piperazine-1-carboxylate]	1000 to 10000
Nc1ncc(N2CCN(S(=O)(=O)c3ccoc3)CC2)nc1-c1nc2ccccc2[nH]1 [Compound I-269, 3-(1H-benzo[d]imidazol-2-yl)-5-(4-(furan-3-ylsulfonyl)piperazin-1-yl)pyrazin-2-amine]	100 to 1000
Nc1ncc(N2CCN(C(=O)N3CCCCC3)CC2)nc1-c1nc2ccccc2[nH]1 [Compound I-270, (4-(5-amino-6-(1H-benzo[d]imidazol-2-yl)pyrazin-2-yl)piperazin-1-yl)(piperidin-1-yl)methanone]	1000 to 10000
CCOC(=O)N1CCN(c2cnc(N)c(-c3nc4ccccc4[nH]3)n2)CC1 [Compound I-271, ethyl 4-(5-amino-6-(1H-benzo[d]imidazol-2-yl)pyrazin-2-yl)piperazine-1-carboxylate]	1000 to 10000
CC#CCOC(=O)N1CCN(c2cnc(N)c(-c3nc4ccccc4[nH]3)n2)CC1 [Compound I-272, but-2-ynyl 4-(5-amino-6-(1H-benzo[d]imidazol-2-yl)pyrazin-2-yl)piperazine-1-carboxylate]	1000 to 10000
Nc1ncc(N2CCN(C(=O)COc3ccccc3)CC2)nc1-c1nc2ccccc2[nH]1 [Compound I-273, 1-(4-(5-amino-6-(1H-benzo[d]imidazol-2-yl)pyrazin-2-yl)piperazin-1-yl)-2-phenoxyethanone]	1000 to 10000
Cc1cccc(C)c1C(=O)N1CCN(c2cnc(N)c(-c3nc4ccccc4[nH]3)n2)CC1 [Compound I-275, (4-(5-amino-6-(1H-benzo[d]imidazol-2-yl)pyrazin-2-yl)piperazin-1-yl)(2,6-dimethylphenyl)methanone]	1000 to 10000
CCS(=O)(=O)N1CC=C(c2cnc(N)c(-c3nc4ccccn4n3)n2)CC1 [Compound I-276, 3-([1,2,4]triazolo[1,5-a]pyridin-2-yl)-5-(1-(ethylsulfonyl)-1,2,3,6-tetrahydropyridin-4-yl)pyrazin-2-amine]	1000 to 10000
Nc1ncc(N2CCN(c3nccs3)CC2)nc1-c1nc2ccccc2[nH]1 [Compound I-277]	100 to 1000
CN(C)[C@@H]1CCN(C(=O)N2CC=C(c3cnc(N)c(-c4nc5ccccc5[nH]4)n3)CC2)C1 [Compound I-278, (R)-(4-(5-amino-6-(1H-benzo[d]imidazol-2-yl)pyrazin-2-yl)-5,6-dihydropyridin-1(2H)-yl)(3-(dimethylamino)pyrrolidin-1-yl)methanone]	100 to 1000
Nc1ncc(C2=CCN(C(=O)N3CCCNCC3)CC2)nc1-c1nc2ccccc2[nH]1 [Compound I-279, (4-(5-amino-6-(1H-benzo[d]imidazol-2-yl)pyrazin-2-yl)-5,6-dihydropyridin-1(2H)-yl)(1,4-diazepan-1-yl)methanone]	100 to 1000
Nc1ncc(C2=CCN(C(=O)N3CCNCC3)CC2)nc1-c1nc2ccccc2[nH]1 [Compound I-280, (4-(5-amino-6-(1H-benzo[d]imidazol-2-yl)pyrazin-2-yl)-5,6-dihydropyridin-1(2H)-yl)(piperazin-1-yl)methanone]	100 to 1000
Cc1ccc2nc(-c3nc(N4CCn5cnnc5C4)cnc3N)[nH]c2c1 [Compound I-281, 5-(5,6-dihydro-[1,2,4]triazolo[4,3-a]pyrazin-7(8H)-yl)-3-(6-methyl-1H-benzo[d]imidazol-2-yl)pyrazin-2-amine]	1000 to 10000
CC(=O)NC1CN(c2cnc(N)c(-c3nnc(-c4ccccc4)o3)n2)C1 [Compound I-282, N-(1-(5-amino-6-(5-phenyl-1,3,4-oxadiazol-2-yl)pyrazin-2-yl)azetidin-3-yl)ethanamide]	1000 to 10000
CCS(=O)(=O)N1CCN(c2cnc(N)c(-c3nnc(-c4cccc(F)c4)o3)n2)CC1 [Compound I-283, 5-(4-ethylsulfonylpiperazin-1-yl)-3-[5-(3-fluorophenyl)-1,3,4-oxadiazol-2-yl]pyrazin-2-amine]	100 to 1000

Further lines, results first:

Ki [nM]	Structure (SMILES)
100 to 1000	Nc1ncc(N2CCN(S(=O)(=O)C3CCCC3)CC2)nc1C(=O)Nc1ccccn1 [Compound I-248, 3-amino-6-(4-(cyclopentylsulfonyl)piperazin-1-yl)-N-(pyridin-2-yl)pyrazine-2-carboxamide]
100 to 1000	Nc1ncc(C2=CCN(C(=O)N3CCCCC3)CC2)nc1-c1nc2ccccc2[nH]1 [Compound I-249, (4-(5-amino-6-(1H-benzo[d]imidazol-2-yl)pyrazin-2-yl)-5,6-dihydropyridin-1(2H)-yl)(piperidin-1-yl)methanone]
100 to 1000	CCOC(=O)N1CC=C(c2cnc(N)c(-c3nc4ccccc4[nH]3)n2)CC1 [Compound I-250, ethyl 4-(5-amino-6-(1H-benzo[d]imidazol-2-yl)pyrazin-2-yl)-5,6-dihydropyridine-1(2H)-carboxylate]
100 to 1000	Nc1ncc(N2CCN(C(=O)C3CCCCC3)CC2)nc1-c1nnc(-c2ccccc2)o1 [Compound I-251, (4-(5-amino-6-(5-phenyl-1,3,4-oxadiazol-2-yl)pyrazin-2-yl)piperazin-1-yl)(cyclohexyl)methanone]
100 to 1000	Nc1ncc(N2CCN(S(=O)(=O)Cc3ccccc3)CC2)nc1C(=O)Nc1ccccn1 [Compound I-253, 3-amino-6-(4-(benzylsulfonyl)piperazin-1-yl)-N-(pyridin-2-yl)pyrazine-2-carboxamide]
100 to 1000	CC#CCOC(=O)N1CC=C(c2cnc(N)c(-c3nc4ccccc4[nH]3)n2)CC1 [Compound I-254, but-2-ynyl 4-(5-amino-6-(1H-benzo[d]imidazol-2-yl)pyrazin-2-yl)-5,6-dihydropyridine-1(2H)-carboxylate]
100 to 1000	Nc1ncc(N2CCN(C(=O)C3CCCCC3)CC2)nc1C(=O)Nc1ccccn1 [Compound I-256, 3-amino-6-(4-(cyclohexanecarbonyl)piperazin-1-yl)-N-(pyridin-2-yl)pyrazine-2-carboxamide]
100 to 1000	Nc1ncc(C2=CCN(C(=O)OCc3ccccc3)CC2)nc1-c1nnc(-c2ccccc2)o1 [Compound I-257, benzyl 4-(5-amino-6-(5-phenyl-1,3,4-oxadiazol-2-yl)pyrazin-2-yl)-5,6-dihydropyridine-1(2H)-carboxylate]
100 to 1000	Cc1cccc(C)c1C(=O)N1CCN(c2cnc(N)c(-c3nnc(-c4ccccc4)o3)n2)CC1 [Compound I-258, (4-(5-amino-6-(5-phenyl-1,3,4-oxadiazol-2-yl)pyrazin-2-yl)piperazin-1-yl)(2,6-dimethylphenyl)methanone]
< 100	Nc1ncc(C2=CCN(C(=O)C3CCCCC3)CC2)nc1-c1nc2ccccc2[nH]1 [Compound I-259, (4-(5-amino-6-(1H-benzo[d]imidazol-2-yl)pyrazin-2-yl)-5,6-dihydropyridin-1(2H)-yl)(cyclohexyl)methanone]
< 100	Cc1cccc(C)c1C(=O)N1CC=C(c2cnc(N)c(-c3nc4ccccc4[nH]3)n2)CC1 [Compound I-263, (4-(5-amino-6-(1H-benzo[d]imidazol-2-yl)pyrazin-2-yl)-5,6-dihydropyridin-1(2H)-yl)(2,6-dimethylphenyl)methanone]
